Among the data in US20130203730A1, “BENZOTHIAZOLES AS GHRELIN RECEPTOR MODULATORS” (AstraZeneca AB, priority 2007, published 2013) are Emax, EC50 and IC50 values, retold here.

In test [1] the target is T1, human GHS receptor (Homo sapiens, UniProt Q92847).
T1 construct: expressed in transfected cells
Nature of the test: Ghrelin IP1 agonist assay (IP1 HTRF) in HEK293s cells expressing human GHS receptor. It counts as cell-based. The procedure:
In HEK293s cells stably expressing human GHS receptor (In-house), agonist activity was assessed by measuring intracellular myo-Inositol 1 phosphate (IP1) using the IP1 HTRF assay kit (Cisbio International).
Cells were harvested using accutase (Sigma), spun down at 1000 rpm for 5 minutes and resuspended in stimulation buffer (as above) containing 0.02% fatty acid free BSA at a density of 1.43E6 cells/ml.
(In TR-FRET formats the signal depends on donor and acceptor labels being close together.)

Test [2] addresses T1, human GHS receptor. Nature of the test: h bind IC50 (binding assay, hBindingIC50).

T1 sequence (Q92847 whole entry): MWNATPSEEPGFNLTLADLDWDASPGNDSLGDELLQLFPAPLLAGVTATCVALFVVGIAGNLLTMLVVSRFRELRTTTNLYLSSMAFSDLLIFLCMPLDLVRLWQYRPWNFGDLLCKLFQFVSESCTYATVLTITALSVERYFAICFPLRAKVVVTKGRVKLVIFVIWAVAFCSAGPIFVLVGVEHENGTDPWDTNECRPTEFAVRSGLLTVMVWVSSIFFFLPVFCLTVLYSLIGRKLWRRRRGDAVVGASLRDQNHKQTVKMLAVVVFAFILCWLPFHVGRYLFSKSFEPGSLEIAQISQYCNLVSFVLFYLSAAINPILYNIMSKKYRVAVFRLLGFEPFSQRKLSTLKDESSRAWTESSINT

Turning to `CCS(=O)(=O)c1ccccc1C(=O)NC(=O)Nc1nc2ccc(S(C)(=O)=O)cc2s1` [Example 135, 2-Ethylsulfonyl-N-[(6-methylsulfonylbenzothiazol-2-yl)carbamoyl]benzamide], on human GHS receptor [1] (HEK293S, 2 h, agonist effect as % maximal effect of GHRP-6 (5 μM), read-out: h IP1 ag %), the Emax worked out at 18.2%. Besides, the EC50 (in general, the concentration needed to bring the measured effect to its halfway point) at human GHS receptor [1] (HEK293s cells stably expressing human GHS receptor, read-out: h IP1 ag EC50) stood at 3680 nM. At human GHS receptor [2], the IC50 (commonly the point on the concentration scale where inhibition reaches its midpoint) was 2220 nM.
